Laboratory results from US20230002408A1, “HETEROARYLDIHYDROPYRIMIDINE DERIVATIVES AND METHODS OF TREATING HEPATITIS B INFECTIONS” (JANSSEN PHARMACEUTICA NV, priority 2019, published 2023).
Where two headings read alike, the source gives them in different places.

Legend:
HBV = experiment: Anti-viral assay in HepG2.2.15 cells: HBV DNA in culture medium by qPCR; type: cell-based; conditions: Hepatitis B virus, HepG2.2.15, 144 h
Protocol: (§1) HepG2.2.15 (the HepG2.2.15 cell line can be produced by transfection of the HepG2 cell line as described in Sells, Chen, and Acs 1987 (Proc. Natl. Acad. Sci. USA 84: 1005-1009), and the HepG2 cell line is available from ATCC® under number HB-8065™).
(§2) HepG2.2.15 cells were plated into 96-well plate in 2% FBS culture medium at the density of 40,000 cells/well and 5,000 cells/well for HBV inhibitory activity and cytotoxicity determination, respectively. After incubation at 37° C., 5% CO2 overnight, cells were treated with medium containing compounds for 6 days with medium and compounds refreshed after 3 days of treatment. Each compound was tested in a 1:3 serial dilutions at 8 different concentrations in triplicate. The highest concentration of the compounds was 10 uM or 1 uM for anti-HBV activity assay and 100 uM for cytotoxicity determination. Cell viability was determined by CCK-8 assay. After 6 days of compounds treatment, 20 μl CCK-8 reagents were added to each well of cytotoxicity assay plates. Cell plates were incubated at 37° C., 5% CO2 for 2.5 h. The absorbance at 450 nm wavelength and the absorbance at 630 nm wavelength as reference was measured.
The change of HBV DNA level induced by the compounds was assessed by quantitative real-time polymerase chain reaction (qPCR). Briefly, the HBV DNA in the culture medium was extracted using QlAamp 96 DNA Blood Kit according to the manual and then quantified by real-time PCR assay using the primers and probe in the table 1 below.
(§3) EC50 and CC50 values are calculated by the GRAPHPAD PRISM software.

[1] = Cytotoxicity determination in HepG2.2.15 cells (CCK-8 cell viability); type: cell-based; conditions: human, 6 days treatment, CCK-8, highest concentration 100 uM
Protocol: as §1, §2, §3

[2] = HepG2.2.15 cells, 6 days treatment, HBV DNA in culture medium by real-time PCR, read-out: EC50

SMILES | EC50 (HBV; [2]) [nM] | CC50 at 6 days [1] [nM] | EC50 (HBV) [nM]
COC(=O)C1=C(CN2CCO[C@H]3CN(C(=O)OC(C)(C)C)C[C@H]32)NC(c2ncc(F)cc2F)=N[C@@H]1c1ccc(F)cc1Cl (single isomer, unassigned) [Reference 1F, tert-butyl (4aR*,7aS*)-4-4(S*)-6-(2-chloro-4-fluorophenyl)-2-(3,5-difluoropyridin-2-yl)-5-(methoxycarbonyl)-3,6-dihydropyrimidin-4-yl)methyphexahydropyrrolo[3,4-b][1,4]oxazine-6(2H)-carboxylate, reference compound] | 87 | 5800 | –
COC(=O)C1=C(CN2CCO[C@@H]3CN(C(=O)OC(C)(C)C)C[C@H]32)NC(c2ncc(F)cc2F)=N[C@@H]1c1ccc(F)cc1Cl (single isomer, unassigned) [Reference 1C, (4aR*,7aR*)-tert-butyl 4-4(S*)-6-(2-chloro-4-fluorophenyl)-2-(3,5-difluoropyridin-2-yl)-5-(methoxycarbonyl)-3,6-dihydropyrimidin-4-yl)methyl)hexahydropyrrolo[3,4-b][1,4]oxazine-6(2H)-carboxylate, reference compound] | 677 | 3700 | –
CCOC(=O)C1=C(CN2CCO[C@@H]3CN(C4CCC(C(=O)O)C4)C[C@@H]32)NC(c2nccs2)=N[C@H]1c1cccc(F)c1C (some centres unmarked) [Compound I-5] | – | 40600 | 86
COC(=O)C1=C(CN2CCO[C@H]3CN(CC(C)(C)C(=O)O)C(=O)[C@H]32)NC(c2nccs2)=N[C@H]1c1cccc(F)c1C (single isomer, unassigned) [Compound I-19A, 3-((4aS*,7aS*)-4-4(S*)-6-(3-fluoro-2-methylphenyl)-5-(methoxycarbonyl)-2-(thiazol-2-yl)-3,6-dihydropyrimidin-4-yl)methyl)-5-oxohexahydropyrrolo[3,4-b][1,4]oxazin-6(2H)-yl)-2,2-dimethylpropanoic acid] | 28 | 59100 | –
CCOC(=O)C1=C(CN2CCO[C@@H]3CN(S(C)(=O)=O)C[C@@H]32)NC(c2nccs2)=N[C@H]1c1cccc(F)c1C (racemic) [Compound I-7F, (S)-(cis)-Ethyl 4-(3-fluoro-2-methylphenyl)-6-((6-(methylsulfonyl)hexahydropyrrolo[3,4-b][1,4]oxazin-4(4aH)-yl)methyl)-2-(thiazol-2-yl)-1,4-dihydropyrimidine-5-carboxylate] | 8 | 26400 | –
COC(=O)C1=C(CN2CCO[C@@H]3CN(C(=O)OC(C)(C)C)C[C@@H]32)NC(c2ncc(F)cc2F)=N[C@H]1c1ccc(F)cc1Cl (single isomer, unassigned) [Reference 1G, (4aS*,7aR*)-tert-butyl 4-(((R*)-6-(2-chloro-4-fluorophenyl)-2-(3,5-difluoropyridin-2-yl)-5-(methoxycarbonyl)-3,6-dihydropyrimidin-4-yl)methyl)hexahydropyrrolo[3,4-b][1,4]oxazine-6(2H)-carboxylate, reference compound] | > 1000 | 14500 | –
CCOC(=O)C1=C(CN2CCO[C@H]3CN(CC(C)(C)C(=O)O)C(=O)[C@H]32)NC(c2nccs2)=N[C@H]1c1cccc(F)c1Cl (single isomer, unassigned) [Compound I-18A, 3-((4aS*,7aS*)-4-4(R*)-6-(2-chloro-3-fluorophenyl)-5-(ethoxycarbonyl)-2-(thiazol-2-yl)-3,6-dihydropyrimidin-4-yl)methyl)-5-oxohexahydropyrrolo[3,4-b][1,4]oxazin-6(2H)-yl)-2,2-dimethylpropanoic acid] | 7 | 62400 | –
CCOC(=O)C1=C(CN2CCO[C@@H]3CN(S(=O)(=O)C4CC(C)(C(=O)O)C4)C[C@@H]32)NC(c2nccs2)=N[C@H]1c1cccc(F)c1C (relative stereo) [Compound I-9F, (4aS*,7aR*)—(S)-3-((4-((5-(Ethoxycarbonyl)-6-(3-fluoro-2-methylphenyl)-2-(thiazol-2-yl)-3,6-dihydropyrimidin-4-yl)methyphexahydropyrrolo[3,4-b][1,4]oxazin-6(2H)-yl)sulfonyl)-1-methylcyclobutanecarboxylic acid] | 110 | 82600 | –
COC(=O)C1=C(CN2CCO[C@H]3CN(CC(C)(C)C(=O)O)C(=O)[C@H]32)NC(c2nccs2)=N[C@H]1c1ccc(F)c(F)c1C (single isomer, unassigned) [Compound I-17B, 3-((4aS*,7aS*)-4-(((S*)-6-(3,4-difluoro-2-methylphenyl)-5-(methoxycarbonyl)-2-(thiazol-2-yl)-3,6-dihydropyrimidin-4-yl)methyl)-5-oxohexahydropyrrolo[3,4-b][1,4]oxazin-6(2H)-yl)-2,2-dimethylpropanoic acid] | 2.6 | 41700 | –
COC(=O)C1=C(CN2CCO[C@H]3CN(C(=O)OC(C)(C)C)C[C@H]32)NC(c2ncc(F)cc2F)=N[C@H]1c1ccc(F)cc1Cl (single isomer, unassigned) [Reference 1E, tert-butyl (4aR*,7aS*)-4-4(R*)-6-(2-chloro-4-fluorophenyl)-2-(3,5-difluoropyridin-2-yl)-5-(methoxycarbonyl)-3,6-dihydropyrimidin-4-yl)methyl)hexahydropyrrolo[3,4-b][1,4]oxazine-6(2H)-carboxylate, reference compound] | > 1000 | 11700 | –
CCOC(=O)C1=C(CN2CCO[C@H]3CN(CC(C)(C)C(=O)O)C[C@H]32)NC(c2nccs2)=N[C@H]1c1cccc(F)c1C (relative stereo) [Compound I-6A, 3-((4aR*,7aS*)-4-4(S)-5-(Ethoxycarbonyl)-6-(3-fluoro-2-methylphenyl)-2-(thiazol-2-yl)-3,6-dihydropyrimidin-4-yl)methyphexahydropyrrolo[3,4-b][1,4]oxazin-6(2H)-yl)-2,2-dimethylpropanoic acid] | 18 | 82400 | –
CCOC(=O)C1=C(CN2CCO[C@H]3CN(C(=O)C(C)(C)C(=O)O)C[C@H]32)NC(c2nccs2)=N[C@H]1c1cccc(F)c1C (relative stereo) [Compound I-12A, 3-((4aR*,7aS*)-4-4(S)-5-(ethoxycarbonyl)-6-(3-fluoro-2-methylphenyl)-2-(thiazol-2-yl)-3,6-dihydropyrimidin-4-yl)methyl)hexahydropyrrolo[3,4-b][1,4]oxazin-6(2H)-yl)-2,2-dimethyl-3-oxopropanoic acid] | – | > 100000 | 310
COC(=O)C1=C(CN2CCO[C@@H]3CN(C(=O)OC(C)(C)C)C[C@@H]32)NC(c2ncc(F)cc2F)=N[C@@H]1c1ccc(F)cc1Cl (single isomer, unassigned) [Reference 1H, (4aS*,7aR*)-tert-butyl 4-(((S*)-6-(2-chloro-4-fluorophenyl)-2-(3,5-difluoropyridin-2-yl)-5-(methoxycarbonyl)-3,6-dihydropyrimidin-4-yl)methyl)hexahydropyrrolo[3,4-b][1,4]oxazine-6(2H)-carboxylate, reference compound] | > 1000 | 8700 | –
COC(=O)C1=C(CN2CCO[C@H]3CN(C(=O)OC(C)(C)C)C[C@@H]32)NC(c2ncc(F)cc2F)=N[C@H]1c1ccc(F)cc1Cl (single isomer, unassigned) [Reference 1B, (4aS*,7aS*)-tert-butyl 4-(((R*)-6-(2-chloro-4-fluorophenyl)-2-(3,5-difluoropyridin-2-yl)-5-(methoxycarbonyl)-3,6-dihydropyrimidin-4-yl)methyl)hexahydropyrrolo[3,4-b][1,4]oxazine-6(2H)-carboxylate, reference compound] | > 1000 | 2500 | –
COC(=O)C1=C(CN2CCO[C@H]3CN(CC(C)(C)C(=O)O)C(=O)[C@H]32)NC(c2nccs2)=N[C@H]1c1ccc(F)c(F)c1Cl (single isomer, unassigned) [Compound I-22A, 3-((4aS*,7aS*)-4-4(R*)-6-(2-chloro-3,4-difluorophenyl)-5-(methoxycarbonyl)-2-(thiazol-2-yl)-3,6-dihydropyrimidin-4-yl)methyl)-5-oxohexahydropyrrolo[3,4-b][1,4]oxazin-6(2H)-yl)-2,2-dimethylpropanoic acid] | 0.5 | 44300 | –
CCOC(=O)C1=C(CN2CCO[C@@H]3CN(c4ncc(C(=O)O)s4)C[C@@H]32)NC(c2nccs2)=N[C@H]1c1cccc(F)c1C (racemic) [Compound I-8F, 2-((cis)-4-(((S)-5-(Ethoxycarbonyl)-6-(3-fluoro-2-methylphenyl)-2-(thiazol-2-yl)-3,6-dihydropyrimidin-4-yl)methyl)hexahydropyrrolo[3,4-b][1,4]oxazin-6(2H)-yl)thiazole-5-carboxylic acid] | – | 37600 | 45
